In US9023789B2, “Amylin analogs and pharmaceutical compositions thereof” (Novo Nordisk A/S, priority 2012, dated 2015):
Numbered stars: 1 amine (or outer) side, 2 acyl side, 3 side chain; on linkers, the order of the positions; unused ones are H or OH. Bridge positions count the residues as written; N and C are the ends. Side chains are listed from the residue outwards. Peptide text beside a SMILES is read from it. * marks the point of attachment. C20 diacid = O=C(O)CCCCCCCCCCCCCCCCCCC(=O)*; γGlu = O=C(O)[C@H](CCC(=O)[*:2])N[*:1]; AEEA = NCCOCCOCC(=O)O

Tests used:
[1] = target: T1, human amylin 3(a) receptor (human calcitonin receptor + RAMP-3) in BHK570 cells (Homo sapiens, UniProt O60896+P30988); assay: ASSAY (II)a functional assay, human amylin receptor (CRE luciferase); type: cell-based
T1 construct: expressed in transfected cells
Summary of the method: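 BHK cells stably carrying a CRE-luciferase reporter plus calcitonin receptor, or calcitonin receptor with RAMP-3 for the amylin 3(a) receptor, were seeded and kept overnight at 37° C. Compounds were added in assay medium with 10% FBS and 10 mM Hepes, pH 7.4, for 3 hours at 37° C, then luminescence was counted.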

[2] = target: T2, human amylin receptor (membranes from Amylin 3(a)/CRE-luc cells) (Homo sapiens, UniProt O60896+P30988); assay: ASSAY (V) binding to the human amylin receptor (SPA, 125I-rat amylin);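 further: competition binding of cell membranes (35 ng/µL) mixed with SPA beads in 384-well plates at 40 µL total volume, read by scintillation counting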
T2 construct: expressed in transfected cells
T2 sequence (P30988 25-474): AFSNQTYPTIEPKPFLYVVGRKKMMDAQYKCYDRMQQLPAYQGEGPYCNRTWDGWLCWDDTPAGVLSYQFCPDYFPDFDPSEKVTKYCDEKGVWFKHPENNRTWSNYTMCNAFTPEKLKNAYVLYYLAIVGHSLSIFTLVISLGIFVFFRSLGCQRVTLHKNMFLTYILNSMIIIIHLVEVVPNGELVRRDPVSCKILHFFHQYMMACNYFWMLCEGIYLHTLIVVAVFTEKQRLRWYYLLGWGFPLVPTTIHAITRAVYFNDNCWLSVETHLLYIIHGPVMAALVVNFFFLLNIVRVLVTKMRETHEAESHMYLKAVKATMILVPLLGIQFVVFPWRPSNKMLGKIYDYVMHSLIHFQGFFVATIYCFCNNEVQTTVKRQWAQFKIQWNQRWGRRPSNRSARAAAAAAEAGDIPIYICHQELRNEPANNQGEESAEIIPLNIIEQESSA
T2 sequence (O60896 24-148 partner): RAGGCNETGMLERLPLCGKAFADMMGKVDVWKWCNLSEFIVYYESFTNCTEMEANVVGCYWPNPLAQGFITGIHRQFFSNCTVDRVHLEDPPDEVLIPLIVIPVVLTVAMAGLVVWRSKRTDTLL

[3] = hCTR funct. EC50 divided by hAmylin-R funct. EC50
[4] = hCTR funct. EC50 over hAmylin-R funct. EC50
[5] = human functional selectivity: hCTR funct. EC50 / hAmylin-R funct. EC50
[6] = Table 5, selectivity, hCTR bind IC50 / hAmylin-R bind IC50
[7] = Table 5a, selectivity, hCTR bind IC50 / hAmylin-R bind IC50
[8] = Table 5b, selectivity, hCTR bind IC50 / hAmylin-R bind IC50
[9] = Table 5c, selectivity, hCTR bind IC50 / hAmylin-R bind IC50
[10] = Table 7, human binding selectivity, included for comparison
[11] = Table 7a (preferred compounds), human binding selectivity, included for comparison
[12] = ratio of human calcitonin receptor binding IC50 to human amylin receptor binding IC50

| SMILES | Ratio hCT/hAmylin funct. [1, 3] | Ratio hCT/hAmylin funct. [1, 4] | Ratio hCT/hAmylin funct. [1, 5] | Ratio hCT/hAmylin binding [2, 6] | Ratio hCT/hAmylin binding [2, 7] | Ratio hCT/hAmylin binding [2, 8] | Ratio hCT/hAmylin binding [2, 9] | Ratio hCT/hAmylin binding [2, 10] | Ratio hCT/hAmylin binding [2, 11] | Ratio hCT/hAmylin binding [2, 12] | Ratio hCT/hAmylin funct. ([1]; hCTR funct. EC50 / hAmylin-R funct. EC50) |
| --- | --- | --- | --- | --- | --- | --- | --- | --- | --- | --- | --- |
| CC[C@H](C)[C@H](NC(=O)[C@H](C)NC(=O)CNC(=O)[C@H](Cc1ccccc1)NC(=O)[C@H](CC(N)=O)NC(=O)[C@@H]1CCCN1C(=O)[C@H](CO)NC(=O)[C@H](CO)NC(=O)[C@H](Cc1c[nH]cn1)NC(=O)[C@H](CCCNC(=N)N)NC(=O)[C@H](CC(C)C)NC(=O)[C@H](Cc1ccccc1)NC(=O)[C@H](Cc1c[nH]cn1)NC(=O)[C@H](C)NC(=O)[C@H](CC(C)C)NC(=O)[C@H](CCCNC(=N)N)NC(=O)[C@H](CCC(N)=O)NC(=O)[C@@H](NC(=O)[C@H](C)NC(=O)[C@@H]1CSSC[C@H](NC(=O)[C@@H](N)CCCCNC(=O)COCCOCCNC(=O)CC[C@H](NC(=O)CCCCCCCCCCCCCCCCCCC(=O)O)C(=O)O)C(=O)N[C@@H](CC(N)=O)C(=O)N[C@@H]([C@@H](C)O)C(=O)N[C@@H](C)C(=O)N[C@@H]([C@@H](C)O)C(=O)N1)[C@@H](C)O)C(=O)N1CCC[C@H]1C(=O)N[C@@H](CO)C(=O)N[C@@H](CO)C(=O)N[C@H](C(=O)N1CCC[C@H]1C(=O)N[C@H](C(=O)NCC(=O)N[C@@H](CO)C(=O)N[C@@H](CC(N)=O)C(=O)N[C@H](C(=O)N[C@@H](Cc1ccc(O)cc1)C(N)=O)[C@@H](C)O)C(C)C)[C@@H](C)O [Example 61] (H-K([AEEA-γGlu-C20 diacid])CNTATCATQRLAHFLRHSSPNFGAIPSSTPVGSNTY-NH2; disulfide 2-7 (inferred)) | 10.9 | 10.9 | 10.9 | 66.7 | 66.7 | 66.7 | 66.7 | 66.7 | 66.7 | 66.7 | – |
| CC[C@H](C)[C@H](NC(=O)[C@H](C)NC(=O)CNC(=O)[C@H](Cc1ccccc1)NC(=O)[C@H](CC(N)=O)NC(=O)[C@@H]1CCCN1C(=O)[C@H](CO)NC(=O)[C@H](CO)NC(=O)[C@H](Cc1c[nH]cn1)NC(=O)[C@H](CCCNC(=N)N)NC(=O)[C@H](CC(C)C)NC(=O)[C@H](Cc1ccccc1)NC(=O)[C@H](Cc1c[nH]cn1)NC(=O)[C@H](C)NC(=O)[C@H](CC(C)C)NC(=O)[C@H](CCCNC(=N)N)NC(=O)[C@H](CCC(N)=O)NC(=O)[C@@H](NC(=O)[C@H](C)NC(=O)[C@@H]1CSSC[C@H](NC(=O)[C@@H](N)CCCCNC(=O)COCCOCCNC(=O)CC[C@H](NC(=O)CCCCCCCCCCCCCCCCCCC(=O)O)C(=O)O)C(=O)N[C@@H](CC(N)=O)C(=O)N[C@@H]([C@@H](C)O)C(=O)N[C@@H](C)C(=O)N[C@@H]([C@@H](C)O)C(=O)N1)[C@@H](C)O)C(=O)N1CCC[C@H]1C(=O)N[C@@H](CO)C(=O)N[C@@H](CO)C(=O)N[C@H](C(=O)N[C@@H](CC(N)=O)C(=O)N[C@H](C(=O)NCC(=O)N1CCC[C@H]1C(=O)N[C@@H](CC(N)=O)C(=O)N[C@H](C(=O)N[C@@H](Cc1ccc(O)cc1)C(N)=O)[C@@H](C)O)C(C)C)[C@@H](C)O [Example 68] (H-K([AEEA-γGlu-C20 diacid])CNTATCATQRLAHFLRHSSPNFGAIPSSTNVGPNTY-NH2; disulfide 2-7) | 17.4 | 17.4 | 17.4 | 64.4 | 64.4 | 64.4 | 64.4 | 64.4 | 64.4 | 64.4 | – |
| CC[C@H](C)[C@H](NC(=O)[C@H](C)NC(=O)CNC(=O)[C@H](Cc1ccccc1)NC(=O)[C@H](CC(N)=O)NC(=O)[C@@H]1CCCN1C(=O)[C@H](CO)NC(=O)[C@H](CO)NC(=O)[C@H](Cc1c[nH]cn1)NC(=O)[C@H](CCCNC(=N)N)NC(=O)[C@H](CC(C)C)NC(=O)[C@H](Cc1ccccc1)NC(=O)[C@H](CCC(=O)O)NC(=O)[C@H](C)NC(=O)[C@H](CC(C)C)NC(=O)[C@H](CCCNC(=N)N)NC(=O)[C@H](CCC(N)=O)NC(=O)[C@@H](NC(=O)[C@H](C)NC(=O)[C@@H]1CSSC[C@H](NC(=O)[C@@H](N)CCCCNC(=O)CC[C@H](NC(=O)CC[C@H](NC(=O)CCCCCCCCCCCCCCCCCCC(=O)O)C(=O)O)C(=O)O)C(=O)N[C@@H](CC(N)=O)C(=O)N[C@@H]([C@@H](C)O)C(=O)N[C@@H](C)C(=O)N[C@@H]([C@@H](C)O)C(=O)N1)[C@@H](C)O)C(=O)N1CCC[C@H]1C(=O)N[C@@H](CO)C(=O)N[C@@H](CO)C(=O)N[C@H](C(=O)N[C@@H](CC(N)=O)C(=O)N[C@H](C(=O)NCC(=O)N[C@@H](CCCNC(=N)N)C(=O)N[C@@H](CC(N)=O)C(=O)N[C@H](C(=O)N[C@@H](Cc1ccc(O)cc1)C(N)=O)[C@@H](C)O)C(C)C)[C@@H](C)O [Example 88] (H-K([γGlu-γGlu-C20 diacid])CNTATCATQRLAEFLRHSSPNFGAIPSSTNVGRNTY-NH2; disulfide 2-7) | 8.5 | 8.5 | 8.5 | 46.5 | 46.5 | 46.5 | 46.5 | 46.5 | 46.5 | 46.5 | – |
| CC[C@H](C)[C@H](NC(=O)[C@H](C)NC(=O)CNC(=O)[C@H](Cc1ccccc1)NC(=O)[C@H](CC(N)=O)NC(=O)[C@@H]1CCCN1C(=O)[C@H](CO)NC(=O)[C@H](CO)NC(=O)[C@H](Cc1c[nH]cn1)NC(=O)[C@H](CCCNC(=N)N)NC(=O)[C@H](CC(C)C)NC(=O)[C@H](Cc1ccccc1)NC(=O)[C@H](Cc1c[nH]cn1)NC(=O)[C@H](C)NC(=O)[C@H](CC(C)C)NC(=O)[C@H](CCCNC(=N)N)NC(=O)[C@H](CCC(N)=O)NC(=O)[C@@H](NC(=O)[C@H](C)NC(=O)[C@@H]1CSSC[C@H](NC(=O)[C@H](CCCNC(=N)N)NC(=O)CNC(=O)CC[C@H](NC(=O)CCCCCCCCCCCCCCCCCCC(=O)O)C(=O)O)C(=O)N[C@@H](CC(N)=O)C(=O)N[C@@H]([C@@H](C)O)C(=O)N[C@@H](C)C(=O)N[C@@H]([C@@H](C)O)C(=O)N1)[C@@H](C)O)C(=O)N1CCC[C@H]1C(=O)N[C@@H](CO)C(=O)N[C@@H](CO)C(=O)N[C@H](C(=O)N[C@@H](CC(N)=O)C(=O)N[C@H](C(=O)NCC(=O)N1CCC[C@H]1C(=O)N[C@@H](CC(N)=O)C(=O)N[C@H](C(=O)N[C@@H](Cc1ccc(O)cc1)C(N)=O)[C@@H](C)O)C(C)C)[C@@H](C)O [Example 102] ({C20 diacid-γGlu}-GRCNTATCATQRLAHFLRHSSPNFGAIPSSTNVGPNTY-NH2; disulfide 3-8 (inferred)) | 2.9 | 2.9 | 2.9 | 36.2 | 36.2 | 36.2 | 36.2 | 36.2 | 36.2 | 36.2 | 2.9 |
| CC[C@H](C)[C@H](NC(=O)[C@H](C)NC(=O)CNC(=O)[C@H](Cc1ccccc1)NC(=O)[C@H](CC(N)=O)NC(=O)[C@@H]1CCCN1C(=O)[C@H](CO)NC(=O)[C@H](CO)NC(=O)[C@H](Cc1c[nH]cn1)NC(=O)[C@H](CCCNC(=N)N)NC(=O)[C@H](CC(C)C)NC(=O)[C@H](Cc1ccccc1)NC(=O)[C@H](CCC(=O)O)NC(=O)[C@H](C)NC(=O)[C@H](CC(C)C)NC(=O)[C@H](CCCNC(=N)N)NC(=O)[C@H](CCC(N)=O)NC(=O)[C@@H](NC(=O)[C@H](C)NC(=O)[C@@H]1CSSC[C@H](NC(=O)[C@@H](N)CCCCNC(=O)CC[C@H](NC(=O)CC[C@H](NC(=O)CCCCCCCCCCCCCCCCCCC(=O)O)C(=O)O)C(=O)O)C(=O)N[C@@H](CC(N)=O)C(=O)N[C@@H]([C@@H](C)O)C(=O)N[C@@H](C)C(=O)N[C@@H]([C@@H](C)O)C(=O)N1)[C@@H](C)O)C(=O)N1CCC[C@H]1C(=O)N[C@@H](CO)C(=O)N[C@@H](CO)C(=O)N[C@H](C(=O)N[C@@H](CC(N)=O)C(=O)N[C@H](C(=O)NCC(=O)N[C@@H](Cc1c[nH]cn1)C(=O)N[C@@H](CCC(=O)O)C(=O)N[C@H](C(=O)N[C@@H](Cc1ccc(O)cc1)C(N)=O)[C@@H](C)O)C(C)C)[C@@H](C)O [Example 104] (H-K([γGlu-γGlu-C20 diacid])CNTATCATQRLAEFLRHSSPNFGAIPSSTNVGHETY-NH2; disulfide 2-7; N-terminus assumed) | 15.8 | 15.8 | 15.8 | 29.1 | 29.1 | 29.1 | 29.1 | 29.1 | 29.1 | 29.1 | – |
